For this assay, the system named is monoclonal antibody cocktail-induced arthritis. The experiment in a line: Mice monoclonal antibody cocktail-induced arthritis model. In kind it is in vivo, Mice (BALB/c Cr Slc). As for the experimental part:
1-1 Mice (BALB/c Cr Slc (SPF)) were used to examine arthritis suppressing effects of peptides of the present invention on monoclonal antibody cocktail-induced arthritis. Mice were fed normal chow and allowed to acclimate for 6 days before used in experiments.
Arthritis was caused by intravenous administration of 2 mg/animal of an arthritis-inducing monoclonal antibody cocktail and three days later, intraperitoneal administration of 50 μg/animal of lipopolysaccharide (LPS). Peptides R1 and R9 each were intraperitoneally administered at a dose of 10 mg/kg once a day from the day following the LPS administration (day 4) to day 14. Peptide SP4 and the variant of peptide SP4 composed of the corresponding D-amino acids (except for glycine) each were intraperitoneally administered at a dose of 10 or 100 mg/kg once a day from the day following the LPS administration (day 4) to day 14. […] A control group was given physiological saline at 10 mL/kg once a day from day 4.
To forty 7-week-old mice, the arthritis-inducing monoclonal antibody cocktail was intravenously administered at a dose of 2 mg/animal on day 0, and LPS was intraperitoneally administered at a dose of 50 μg/animal on day 3.
[…] As a control, physiological saline was intraperitoneally administered once a day from day 4, and the volume of administration was 10 ml/kg. […] Needles ([…]; Terumo) and syringes (1.0-ml capacity; Terumo) were used for administration.
Observation of clinical score was performed on even days from day 0 to day 14 as follows. The total score for the extremities was set to a maximum of 12. Visual observation of swelling of the legs was performed.
0: normal joint 1: slight inflammation and redness 2: serious erythema and swelling over the whole limb and preventing the use of the limb 3: deformation of the limb or joint accompanied by ankylosis, joint stiffness, loss of function
Results of examinations are expressed by mean value±standard error and were analyzed using EXSAS (Version 7.1.6, Arm Systex Co., Ltd.). Clinical scores were subjected to Wilcoxon's test. Quantitative data, such as body weights and leg volumes, were subjected to Bartlett's test, followed by Dunnett's multiple comparison test if the variance was uniform or by Steel's multiple comparison test if the variance was not uniform. The level of significance was set at 5% on both sides.

[1] abbreviates: day 6, 0.15 mg/kg intraperitoneal once a day from day 4.
[2] abbreviates: day 14, 0.15 mg/kg intraperitoneal once a day from day 4.

On to `CN(Cc1cnc2nc(N)nc(N)c2n1)c1ccc(C(=O)N[C@@H](CCC(=O)O)C(=O)O)cc1` [Methotrexate], for which the hind-limb volume amounted to 0.216 cm^3 (day 0, 0.15 mg/kg intraperitoneal group); 0.381 cm^3 under setting [1]; 0.441 cm^3 (day 8 (highest value), 0.15 mg/kg intraperitoneal once a day from day 4); 0.356 cm^3 under setting [2]. Also, the “increasing rate of hind-limb volume (volume on day 0 = 100%)” value reads like this: under setting [1], 176.2%; (day 8 (highest), 0.15 mg/kg intraperitoneal once a day from day 4) 204.2%; under setting [2], 165.4%. The clinical score runs as follows: (day 12, 0.15 mg/kg intraperitoneal once a day from day 4) 8.2±0.9; under setting [2], 8.6±0.9.

The record behind these values is patent publication US20130225508A1, “PEPTIDE CAPABLE OF BINDING TO IMMUNOGLOBULIN” (priority 2010, published 2013).
